Assay results from patent US10092620B2, “Uses of cyclic peptides for treating and preventing atherosclerosis” (THE SCRIPPS RESEARCH INSTITUTE, priority 2013, dated 2018).
Non-standard residues stand in square brackets, D forms with d. Residues, ends and D or L forms follow the SMILES beside them.

Columns and labels:
LDLr-null mice [1] = experiment: in vivo efficacy study: plasma total cholesterol in high-fat-fed LDLr-null mice; design: species or system mouse
Source text: Encouraged by the above findings, we carried out a 2-week pilot study to determine the effect of 1 on plasma total cholesterol levels. As an animal model, we employed the LDLr-null mouse, which has a human-like lipoprotein profile and is a leading animal model for studying hypercholesterolemia and atherogenesis. Considering that the abiotic nature of cyclic D,L-α-peptides renders them highly resistant to proteolysis, we chose to conduct this pilot in vivo efficacy study via the more convenient oral route of administration. Thus, the cyclic D,L-α-peptide was administered orally in the drinking water for two weeks (each mouse drank ˜0.5 mg peptide per day, or ˜25 mg/kg/day) to mice maintained on a high-fat diet.
(§1) In vivo efficacy study: LDL receptor-null (LDLr^−/−) mice on a C57BL/6J background were initially purchased from Jackson Laboratories (Bar Harbor, Me.) and were bred in house. The mice were weaned at 4 weeks of age and were fed ad libitum a standard chow diet (Harlan Teklad 7019) until they were 10-weeks old, when they were switched to a high-fat Western diet (WD) containing 15.8% (wt/wt) fat, 1.25% (wt/wt) cholesterol, and no cholate (Harlan Teklad 94059). At the time that the WD was started, the test cyclic peptide was added to the drinking water at a high dose of 180 μM (200 μg/mL) or a low dose of 18 μM (20 μg/mL) and the mice (female, n=8 per dosing group) were continued on WD for 10 weeks. The lyophilized peptide was easily dissolved in PBS (pH 7.4) containing 1% sucrose, resulting in a clear solution. The drinking water solution was replaced with fresh solution every day. A control group of eight mice (female, n=8) were fed WD with vehicle (PBS with 1% sucrose) drinking water. The mice consumed approximately 2.5 mL of water per day per mouse, and there was no significant difference in water or food consumption between groups.
Effect of cyclic peptides on plasma total cholesterol: The mice were bled after two weeks of treatment and at the time of harvest (10 weeks). The blood (200 μL) was collected after an overnight fast (14-16 h) by retro-orbital puncture into a heparinized capillary tube at two weeks, or by cardiac puncture into EDTA anti-coagulant coated tubes at the time of harvest (10 weeks). Plasma was separated from whole blood immediately by centrifugation of the blood samples at 5000 rpm for 10 min at 4° C., and was then stored at −80° C. Plasma total cholesterol (TC) was measured using an enzymatic colorimetric method kit (Amplex® red cholesterol assay kit, No. A12216, Life Technologies) according to the manufacturer's instructions.
In addition, several peptides were administered orally to mice at a 35 mg/kg dose (unless otherwise noted) in the drinking water for two weeks. The female LDLr-null mice maintained on a high-fat diet were provided with peptide-treated 1% sucrose/PBS or 1% sucrose/PBS alone as the drinking water ad libitum. Cholesterol levels were then determined. The data are shown in FIG. 7 as a scatter plot along with mean±SD. p values were determined by the one-way ANOVA test with a post hoc Tukey-Kramer test.

LDLr-null mice [2] = experiment: plasma lipoprotein and lipoprotein cholesterol profiles (FPLC of pooled plasma); format: in vivo, mouse; conditions: 2 weeks oral ~25 mg/kg/day
Method: Effect of cyclic peptides on plasma lipoprotein and lipoprotein cholesterol profiles: Pooled plasma (240 μL total, 30 μL from each, n=8 mice per group) from the two-week blood draw was used for fast protein liquid chromatography (FPLC) analysis. Lipoproteins were separated by using 3 Superdex 200 10/30 columns connected in series (GE Healthcare). The plasma was centrifuged at 11,000 rpm for 10 min at room temperature to remove particulates (floating material was gently mixed into liquid before removing the supernatant for FPLC injection). 200 μL of the pooled plasma was injected on the system eluted with 10 mM tris-HCl buffer, pH 7.4, containing 1 mM EDTA and 150 mM NaCl; a flow rate of 0.5 ml/min and fraction size of 0.5 mL were used. Total cholesterol in the FPLC fractions was measured using the Amplex® red cholesterol assay kit (No. A12216, Life Technologies) according to the manufacturer's instructions. 20 μL of selected HDL fractions (as indicated in FIG. 6) were mixed with 4 μL of 6× native loading buffer (375 mM tris, pH 6.8, 0.06% bromophenol, 60% glycerol), out of which 20 μL was applied to non-denaturing gel electrophoresis and then immunoblotted for mouse apoA-I as described above.

LDLr-null mice [3] = experiment: evaluation of atherosclerosis: whole aorta lesion area and aortic sinus lesion volume; format: in vivo, mouse; conditions: 10 weeks
Source text: as §1
Evaluation of atherosclerosis: Atherosclerotic lesion severity was assessed in the aortae as previously described in Mullick et al., J. Clin. Invest. 115, 3149-3156, 2005. Briefly, at euthanasia, animals were perfused with PBS, followed by 4% formaldehyde (10% UltraPure EM Grade from Polysciences diluted in PBS, pH 7.2). For en face analysis, the entire mouse aorta was dissected from the proximal ascending aorta to the bifurcation of the iliac artery by using a dissecting microscope. Adventitial fat was removed, and the aorta was opened longitudinally, pinned flat onto black dissecting wax, stained with Sudan IV, and photographed at a fixed magnification. The photographs were digitized, and total aortic areas and lesion areas were calculated by using Adobe Photoshop version CS4, Chromatica V, and NIH Scion Image software (http://rsb.info.nih.gov/nih-image/Default.html). The results were reported as a percentage of the total aortic area that contained lesions.
As a second assessment of atherosclerosis, lesions of the aortic root (heart sinus) were analyzed. Utilizing stereological principles, lesion volume was estimated across a fixed distance of the aortic sinus. […] Lesion areas found only within the valve cusp were measured. […] Lesion volume was calculated from an integration of the measured cross-sectional areas. […]
Other than their in vivo cholesterol reducing activities, several peptides were also examined for ability to inhibit development of atherosclerotic legions in vivo. […] All charts in the figure are shown as a scatter plot along with mean±SD. p values were determined by the one-way ANOVA test with a post hoc Tukey-Kramer test.

[4] = listed as c[wLwReQeR], 25 mg/kg/day
[5] = oral ~25 mg/kg/day, LDLr-null mice, high-fat diet, vs control

**Q.** `CC(C)C[C@@H]1NC(=O)[C@@H](Cc2c[nH]c3ccccc23)NC(=O)[C@H](CCCNC(=N)N)NC(=O)[C@@H](CCC(=O)O)NC(=O)[C@H](CCC(N)=O)NC(=O)[C@@H](CCC(=O)O)NC(=O)[C@H](CCCNC(=N)N)NC(=O)[C@@H](Cc2c[nH]c3ccccc23)NC1=O` [SEQ ID NO:1, c[wLwReQeR]] (cyclo([dW]L[dW]R[dE]Q[dE]R)) was tested. Which “reduction in plasma cholesterol levels compared to control animals” value (LDLr-null mice [1]; 10-fold lower dose ~2.5 mg/kg/day in drinking water, after two weeks) did it give?
**A.** 17%

**Q.** What about the “reduction in total plasma cholesterol compared to control animals” value (LDLr-null mice [1]; oral in drinking water ~25 mg/kg/day, 2 weeks, female LDLr-null mice, high-fat diet) of the same compound?
**A.** 55%

**Q.** And the “reduction of total plasma cholesterol levels (overview statement)” value (LDLr-null mice [1]; oral in drinking water, LDLr-null mice, high-fat diet for 10 weeks, vs. controls)?
**A.** up to 55%

**Q.** What about the “total plasma cholesterol level lower than in control animals” value (LDLr-null mice [1]; oral ~25 mg/kg/day, 10 weeks, LDLr-null mice, high-fat diet) of the same compound?
**A.** 30%

**Q.** And the “plasma cholesterol vs control (in words)” value (LDLr-null mice [1]; ~2.5 mg/kg/day in drinking water, completion of 10-week study)?
**A.** no significant differences

**Q.** And the “HDL particle size (FPLC lipoprotein profile)” value (LDLr-null mice [2]; listed as 1, 25 mg/kg/day)?
**A.** remodeled in favor of the smaller HDL particle sizes

**Q.** And the “VLDL and LDL levels (FPLC lipoprotein profile)” value (LDLr-null mice [2]; listed as 1, 25 mg/kg/day)?
**A.** reduced levels of VLDL and LDL

**Q.** What about the “HDL particle size (FPLC lipoprotein profile)” value (LDLr-null mice [2]; [4]) of the same compound?
**A.** modest shift to smaller (later eluting) particles

**Q.** And the “VLDL and LDL levels (FPLC lipoprotein profile)” value (LDLr-null mice [2]; [4])?
**A.** decreases in the VLDL and LDL levels

**Q.** What about the “HDL levels (FPLC lipoprotein profile)” value (LDLr-null mice [2]; vs vehicle) of the same compound?
**A.** comparable for both groups

**Q.** And the “atherosclerotic lesions vs control (in words)” value (LDLr-null mice [3]; 10-fold lower dose in drinking water)?
**A.** no significant differences

**Q.** And the “reduction in aortic sinus lesion volume” value (LDLr-null mice [3]; [5])?
**A.** 50%

**Q.** And the “reduction in whole aorta lesion area” value (LDLr-null mice [3]; [5])?
**A.** 26%
